Experiment [1] relates to C2C12 cells. The experiment can be described thus: Western blot of differentiation markers and myofibrillar proteins. The experiment is classed as cell-based. As for the experimental part:
To induce C2C12 myotube differentiation, myoblasts were seeded in 6-well plates at 5 × 10^5 cells per well. Once reaching 90% confluency, they were cultured in DMEM supplemented with 2% horse serum (Thermo Fisher Scientific) and 1% penicillin-streptomycin. […] Differentiation was observed using an optical microscope (LEICA, 100×). Myotube morphology (length and diameter) was quantified in ImageJ (NIH) using the same images: myotube length was measured by tracing the long axis of each myotube (end-to-end), and myotube diameter was measured as the short-axis width at three positions along each myotube; the mean of the three width values was recorded as the diameter. For each experimental group, three randomly captured images (fields) were analyzed, and at least 15–20 myotubes per image were quantified under identical imaging settings.
Treated C2C12 cells (5 × 10^5 cells/well) were harvested in lysis buffer (Sigma-Aldrich, 2910) and centrifuged at 12,000 g for 10 min; proteins in the supernatant were collected. Protein concentrations were measured using the BCA Protein Assay Kit (Thermo Fisher Scientific). Each 20 μg sample was separated using 10% SDS–PAGE and transferred onto a polyvinylidene fluoride membrane (Millipore, Burlington, MA, USA). Non-specific binding was blocked with 5% non-fat dry milk for 1 h. The membranes were incubated overnight with primary antibodies: Anti-Myf5 (Abcam, ab125078), Anti-Myf6 (Abcam, ab182842), Anti-MyoD (Santa Cruz, sc-377460), Anti-MyoG (Santa Cruz, sc-52903), Anti-α-actinin (Santa Cruz, sc-17829), Anti-MYH3 (Santa Cruz, sc-53091), Anti-p-mTOR (Ser2448) (CST, #5536), Anti-p-Akt (Ser473) (CST, #9271), Anti-p-p70 S6 Kinase (Thr389) (CST, #9205), Anti-myostatin (Abcam, ab124721), Anti-atrogin-1/MAFbx (Santa Cruz, sc-166806), and Anti-MuRF1 (Santa Cruz, sc-398608). Membranes were then incubated for 1 h with HRP-conjugated secondary antibodies. Blot images were captured with the ECL system (Amersham, UK) and quantified using ImageJ.
(In general: A western blot detects proteins with antibodies after separation by electrophoresis.)

The test system of a further experiment is SAMP8 mice. The experiment can be described thus: H&E myofiber area in muscle. The experiment is classed as in vivo, mouse. The note with it: oral gavage once daily 45 weeks, 20 mg Myoki in 200 µL PBS, n = 5, vs SAMP8 group. As for the experimental part:
Eight week old male senescence-accelerated mouse-prone 8 (SAMP8)/Ta Slc and senescence-accelerated mouse-resistant 1 (SAMR1)/Ta Slc mice (weighing 30 ± 2 g) were purchased from Central Lab Animal Inc. (Seoul, Korea) and housed at 24 °C in cages under a 12/12 h light/dark cycle with ad libitum access to food and water. […] Mice in all groups were dosed once daily by oral gavage for 45 weeks. […] This study was approved by the Institutional Animal Care and Use Committee (approval number CG-R22-001).
Quadriceps (Quad) and gastrocnemius (Gas) muscle tissues were harvested and immersion-fixed in 10% neutral buffered formalin at 4 °C for 24 h. Following fixation, the tissues were dehydrated through a graded series of ethanol, cleared in xylene, and embedded in paraffin. Paraffin-embedded tissues were sectioned at a thickness of 5 μm. The tissue sections mounted on slides were deparaffinized, washed, and stained with hematoxylin (Dako, S3309) and eosin (Thermo Fisher Scientific, #6766007) (H&E). To assess the degree of muscle fibrosis, they were also stained using a Sirius Red Stain Kit (Abcam, ab150681) according to the manufacturer’s instructions. […] For each animal, three images were randomly selected from the stained sections, and the total stained area per image, rather than individual muscle fibers, was quantified using ImageJ software.

For experiment [2], the system named is patients with muscle atrophy (ICD-10-CM code: M62.5). The experiment can be described thus: Clinical trial: muscle mass by DEXA. The class given is in vivo, human. As for the experimental part:
The study was conducted at Biosite Research Private Limited (Shanthipura, India) under the New Drugs and Clinical Trials Rules (2019) issued by CDSCO (Ministry of Health and Family Welfare, Government of India), and in compliance with GCP, applicable local regulatory requirements, the Declaration of Helsinki ([…]), ICMR guidelines (2017), and ICH-GCP E6 (R2). Ethical approval was obtained from the Excel Hospital Institutional Ethics Committee (ECR/1670/Inst/TG/2022) and ethics committees of other participating centers, and the trial was prospectively registered (CTRI/2024/01/061919). All participants provided written informed consent prior to any study procedures. […] Efficacy endpoints were evaluated as changes from baseline to Week 12; efficacy analyses were conducted in the per-protocol population, and safety analyses included all randomized participants who received at least one dose of study product (Supplementary Figure S2). […] Continuous variables were summarized as N, mean (SD), median, minimum, and maximum, and categorical variables as n (%), with percentages calculated as n/N × 100. Changes from baseline to Week 12 in DEXA-assessed muscle mass, 6-m walk test, and handgrip strength were analyzed using ANCOVA, adjusting for the corresponding baseline value. […]

The test system of experiment [3] is C2C12 cells. The experiment can be described thus: Preliminary screening of candidate peptides. The class given is cell-based. From the text: Supplementary Figure 1. […] Western blot images from the screening experiment are shown, and the summary table indicates peptides that met each criterion (O, yes; X, no; –, not determined).

No end group written: not given here.

With EAEYEHL-OH [Myoki], in the experiment on C2C12 cells [1] (Day 3, Western blot, vs DM), the MYH3 protein expression result was “significant increase”, the MyoD protein expression entry is “significant increase”, the MyoG protein expression result is given as “significant increase” and the alpha-actinin protein expression entry is on record as “significant increase”. Further, in the experiment on C2C12 cells [1] (Day 6, 100 μM, Western blot), the “increase in MYH3 expression” value was found to be 307% and the “increase in alpha-actinin expression” value came out at 818%. In addition, in the experiment with SAMP8 mice, the “myofiber area, gastrocnemius” value is reported as “significantly increased” and the “myofiber area, quadriceps” value is reported as “significantly increased”. Also, the “Lean muscle mass, change from baseline to Week 12 (LS mean)” value in experiment [2] (Myoki + arginine + maltodextrin, 200 mg peptide/day oral, N = 38, 95% CI (736.90 to 1124.7), placebo 225) is listed as 930.8 g. Also, in experiment [2] (Week 12, 200 mg/day, ANCOVA, p <0.01), the “Lean muscle mass, difference between placebo and treatment (95% CI)” value came out at 705.8 g. Moreover, the “myotube differentiation (screening)” value in the experiment on C2C12 cells [3] is recorded as “promoted myotube differentiation”. For the same substance, the “DEX-induced activation of muscle protein degradation signaling, particularly atrogin-1/MAFbx upregulation (screening)” value with C2C12 cells [3] (DEX) was “attenuated”.

The values are drawn from PMC12935919 (Frontiers in Pharmacology, 2026).
